Measurements published in US20100069366A1, “ANTIBACTERIAL QUINOLINE DERIVATIVES” (JANSSEN-CILAG, priority 2006, published 2010).
Converted amounts (≈) assume the structure as drawn. Read-outs that look alike come from different tables or passages of the source.

Tests used:
Format in all cases: cell-based
[1] = tested on: Streptococcus pneumoniae (ATCC6305); experiment: Microtitre plate assay, IC90 determination, SPN 6305; conditions: 90% inhibitory concentration for bacterial growth, resazurin
Procedure: (§1) The bacteria used in this study were grown overnight in flasks containing 100 ml Mueller-Hinton Broth (Becton Dickinson—cat. no. 275730) in sterile de-ionized water, with shaking, at 37° C. Stocks (0.5 ml/tube) were stored at −70° C. until use. Bacteria titrations were performed in microtiter plates to detect the TCID50, in which the TCID50 represents the dilution that gives rise to bacterial growth in 50% of inoculated cultures.
(§2) In general, an inoculum level of approximately 100 TCID50 was used for susceptibility testing.
(§3) Flat-bottom, sterile 96-well plastic microtiter plates were filled with 180 μl of sterile deionized water, supplemented with 0.25% BSA. Subsequently, stock solutions (7.8× final test concentration) of compounds were added in 45 μl volumes in column 2 Serial five-fold dilutions (45 μl in […]) were made directly in the microtiter plates from column 2 to reach column 11. Untreated control samples with (column 1) and without (column 12) inoculum were included in each microtiter plate. Depending on the bacteria type, approximately 10 to 60 CFU per well of bacteria inoculum (100 TCID50), in a volume of 100 μl in 2.8× Mueller-Hinton broth medium, was added to the rows A to H, except column 12. The same volume of broth medium without inoculum was added to column 12 in row A to H. The cultures were incubated at 37° C. for 24 hours under a normal atmosphere (incubator with open air valve and continuous ventilation). At the end of incubation, one day after inoculation, the bacterial growth was quantitated fluorometrically. Therefore resazurin (0.6 mg/ml) was added in a volume of 20 μl to all wells 3 hours after inoculation, and the plates were re-incubated overnight. A change in colour from blue to pink indicated the growth of bacteria. The fluorescence was read in a computer-controlled fluorometer (Cytofluor Biosearch) at an excitation wavelength of 530 nm and an emission wavelength of 590 nm. The % growth inhibition achieved by the compounds was calculated according to standard methods.

M. Smegmatis ATCC607 = experiment: In-vitro anti-bacterial activity against strain M. smegmatis ATCC607; conditions: for IC90: Mycolicibacterium smegmatis
Procedure: Flat-bottom, sterile 96-well plastic microtiter plates were filled with 180 μl of sterile deionized water, supplemented with 0.25% BSA. Subsequently, stock solutions (7.8× final test concentration) of compounds were added in 45 μl volumes to a series of duplicate wells in column 2 so as to allow evaluation of their effects on bacterial growth. Serial five-fold dilutions (45 μl in 180 μl) were made directly in the microtiter plates from column 2 to 11 using a customised robot system (Zymark Corp., Hopkinton, Mass.). Pipette tips were changed after every 3 dilutions to minimize pipetting errors with high hydrophobic compounds. Untreated control samples with (column 1) and without (column 12) inoculum were included in each microtiter plate. Approximately 250 CFU per well of bacteria inoculum, in a volume of 100 μl in 2.8× Mueller-Hinton broth medium, was added to the rows A to H, except column 12. The same volume of broth medium without inoculum was added to column 12 in row A to H. The cultures were incubated at 37° C. for 48 hours in a humidified 5% CO2 atmosphere (incubator with open air valve and continuous ventilation). At the end of incubation, two days after inoculation, the bacterial growth was quantitated fluorometrically. Therefore Alamar Blue (10×) was added to all wells in a volume of 20 μl and plates were incubated for another 2 hours at […]
The fluorescence was read in a computer-controlled fluorometer (Cytofluor, Biosearch) at an excitation wavelength of 530 nm and an emission wavelength of 590 nm (gain 30).

[2] = tested on: Staphylococcus aureus (ATCC29213); experiment: Microtitre plate assay, IC90 determination, STA 29213
Procedure: as §1, §2, §3

[3] = Streptococcus pneumoniae ATCC6305
[4] = 90% inhibitory concentration for bacterial growth, 48 hours, Alamar Blue fluorescence
[5] = Staphylococcus aureus ATCC29213, 90% inhibitory concentration for bacterial growth, resazurin
[6] = Streptococcus pneumoniae ATCC6305, read-out: IC90 (μg/ml) SPN 6305
[7] = ATCC607, 90% inhibitory concentration for bacterial growth, 48 hours, Alamar Blue fluorescence, read-out: M. smegmatis IC90
[8] = Staphylococcus aureus ATCC29213, 90% inhibitory concentration for bacterial growth, resazurin, read-out: IC90 (μg/ml) STA 29213
[9] = Streptococcus pneumoniae, ATCC6305, read-out: IC90 (μg/ml) SPN 6305, Streptococcus pneumoniae ATCC6305
[10] = ATCC607, 48 h, read-out: M. smegmatis IC90 (μg/ml), 90% inhibitory concentration for bacterial growth, Alamar Blue fluorescence
[11] = Staphylococcus aureus, ATCC29213, read-out: IC90 (μg/ml) STA 29213

Compound	IC90 [1, 9]	IC90 (M. Smegmatis ATCC607; [10])	IC90 [2, 11]	other results
COc1nc2ccc(-c3cccnc3)cc2cc1C(=C(CCN(C)C)c1cccc2ccccc12)c1ccccc1 [Compound 41]				IC90 (μg/ml) SPN 6305 [1, 3]: 9.53 µg/mL (≈ 17.8 µM); M. smegmatis IC90 (M. Smegmatis ATCC607; [4]): 3.79 µg/mL; IC90 (μg/ml) STA 29213 [2, 5]: 8.49 µg/mL (≈ 15.8 µM)
COc1nc2ccc(Br)cc2cc1C(C(=CCn1cncn1)c1ccccc1)c1ccccc1 (racemic) [Compound 47]				M. smegmatis IC90 (M. Smegmatis ATCC607; [4]): 20.36 µg/mL
COc1nc2ccc(Br)cc2cc1C(/C(=C\CN(C)C)c1ccsc1)c1ccccc1 (centres unmarked) [Compound 16]				IC90 [1, 6]: 1.56 µg/mL (≈ 3.16 µM); IC90 (M. Smegmatis ATCC607; [7]): 1.75 µg/mL (≈ 3.55 µM); IC90 [2, 8]: 7.82 µg/mL (≈ 15.8 µM)
COc1ccc(/C(=C(\CCCCN2CCCCC2)c2ccc(Cl)cc2)c2cnc3ccccc3c2)cc1 [Compound 58]	12.8 µg/mL (≈ 25.1 µM)	8.1 µg/mL (≈ 15.8 µM)	10.2 µg/mL (≈ 20 µM)	
COc1nc2ccc(Br)cc2cc1/C(=C(/CCN(C)C)c1ccsc1)c1ccccc1 [Compound 18]				IC90 [1, 6]: 8.78 µg/mL (≈ 17.8 µM); IC90 (M. Smegmatis ATCC607; [7]): 9.85 µg/mL (≈ 20 µM); IC90 [2, 8]: 17.5 µg/mL (≈ 35.5 µM)
N#Cc1ccc(/C(=C(\CCCCN2CCCCC2)c2ccccc2)c2cnc3ccccc3c2)cc1 [Compound 54]	47.2 µg/mL (≈ 100 µM)	11.8 µg/mL (≈ 25.1 µM)	42 µg/mL (≈ 89.1 µM)	
COc1nc2ccc(Br)cc2cc1/C(=C(/CCN(C)C)c1ccccc1)c1ccc(Cl)cc1 [Compound 1]	1.65 µg/mL (≈ 3.16 µM)	1.65 µg/mL (≈ 3.16 µM)	8.27 µg/mL (≈ 15.8 µM)	
COc1nc2ccc(Br)cc2cc1C(=C(CCN1CCN(C)CC1)c1ccccc1)c1ccccc1 (mixture of isomers) [Compound 45]				IC90 (μg/ml) SPN 6305 [1, 3]: 10.82 µg/mL; M. smegmatis IC90 (M. Smegmatis ATCC607; [4]): 9.65 µg/mL; IC90 (μg/ml) STA 29213 [2, 5]: 43.09 µg/mL
CSc1nc2ccc(Br)cc2cc1/C(=C(\CCN(C)C)c1ccccc1)c1ccccc1 [Compound 3]	1.59 µg/mL (≈ 3.16 µM)	2 µg/mL (≈ 3.97 µM)	7.98 µg/mL (≈ 15.8 µM)	
Clc1ccc(/C(CCCCN2CCCCC2)=C(/c2ccc(Cl)cc2)c2cnc3ccccc3c2)cc1 [Compound 52]	10.3 µg/mL (≈ 20 µM)	1.63 µg/mL (≈ 3.16 µM)	10.3 µg/mL (≈ 20 µM)	
COc1ccc(/C(CCCCN2CCCCC2)=C(/c2ccc(Cl)cc2)c2cnc3ccccc3c2)cc1 [Compound 53]				IC90 [1, 6]: 10.2 µg/mL (≈ 20 µM); IC90 (M. Smegmatis ATCC607; [7]): 2.03 µg/mL (≈ 3.97 µM); IC90 [2, 8]: 9.09 µg/mL (≈ 17.8 µM)
Clc1ccc(/C(=C(\CCCCN2CCCCC2)c2ccccc2)c2cnc3ccccc3c2)cc1 [Compound 19]		1.52 µg/mL (≈ 3.16 µM)		
COc1nc2ccc(Br)cc2cc1C(/C(=C/CCCN1CCCN(C)CC1)c1ccc2ccccc2c1)c1ccccc1 (centres unmarked) [Compound 63]				IC90 (M. Smegmatis ATCC607; [7]): 3.57 µg/mL (≈ 5.63 µM); IC90 [2, 8]: 2.25 µg/mL (≈ 3.55 µM)
c1ccc(/C(CCCCN2CCCCC2)=C(/c2ccccc2)c2cnc3ccccc3c2)cc1 [Compound 49]	8.91 µg/mL (≈ 19.9 µM)	7.08 µg/mL (≈ 15.9 µM)	44.7 µg/mL (≈ 100 µM)	
N#Cc1ccc(/C(=C(\CCCCN2CCCCC2)c2ccc(Cl)cc2)c2cnc3ccccc3c2)cc1 [Compound 55]	10.1 µg/mL (≈ 20 µM)	8.02 µg/mL (≈ 15.8 µM)	8.02 µg/mL (≈ 15.8 µM)	
COc1ccc(/C(=C(\CCCCN2CCCCC2)c2ccccc2)c2cnc3ccccc3c2)cc1 [Compound 57]	9.51 µg/mL (≈ 20 µM)	7.55 µg/mL (≈ 15.8 µM)		
COc1nc2ccc(-c3cc4ccccc4s3)cc2cc1C(C(=CCN(C)C)c1cccc2ccccc12)c1ccccc1 (mixture of isomers) [Compound 34]				IC90 (μg/ml) SPN 6305 [1, 3]: 10.51 µg/mL; M. smegmatis IC90 (M. Smegmatis ATCC607; [4]): 2.35 µg/mL
COc1nc2ccc(Br)cc2cc1C(/C(=C/C#N)CCCCN1CC2CC1CN2Cc1ccccc1)c1ccccc1 (centres unmarked) [Compound 60]				IC90 [1, 6]: 2.48 µg/mL (≈ 3.99 µM); IC90 (M. Smegmatis ATCC607; [7]): 1.97 µg/mL (≈ 3.17 µM); IC90 [2, 8]: 1.97 µg/mL (≈ 3.17 µM)
